Test results as given in the NIST ThermoML archive (doi:10.1021/je8003595).
Numbers after ± are expanded uncertainties.

Test: mn = molality of the nth substance listed, in mol/kg
Details: 101 kPa, Liquid; for viscosity: Capillary tube (Ostwald / Ubbelohde) method

O=C(Oc1ccccc1)c1ccccc1O [phenyl salicylate] + CC#N
Details	mass density [kg/m3]	viscosity [mPa·s]
293.15 K, m1 = 0.0096	783.179 ± 0.5	0.3086 ± 0.0065
293.15 K, m1 = 0.0128	783.379 ± 0.5	0.3087 ± 0.0065
293.15 K, m1 = 0.016	783.559 ± 0.5	0.3088 ± 0.0065
293.15 K, m1 = 0.0192	783.709 ± 0.5	0.3091 ± 0.0065
293.15 K, m1 = 0.0224	783.871 ± 0.5	0.3092 ± 0.0065
293.15 K, m1 = 0.0257	784.031 ± 0.5	0.3094 ± 0.0065
293.15 K, m1 = 0.0321	784.222 ± 0.49	0.3097 ± 0.0065
298.15 K, m1 = 0.0097	777.771 ± 0.51	0.2867 ± 0.0065
298.15 K, m1 = 0.0129	777.981 ± 0.51	0.2869 ± 0.0065
298.15 K, m1 = 0.0161	778.151 ± 0.51	0.2871 ± 0.0065
298.15 K, m1 = 0.0194	778.309 ± 0.51	0.2873 ± 0.0065
298.15 K, m1 = 0.0226	778.451 ± 0.51	0.2875 ± 0.0065
298.15 K, m1 = 0.0258	778.609 ± 0.5	0.2876 ± 0.0065
298.15 K, m1 = 0.0323	778.835 ± 0.5	0.288 ± 0.0065
303.15 K, m1 = 0.0097	772.334 ± 0.52	0.2649 ± 0.0064
303.15 K, m1 = 0.013	772.545 ± 0.52	0.265 ± 0.0064
303.15 K, m1 = 0.0162	772.724 ± 0.51	0.2652 ± 0.0064
303.15 K, m1 = 0.0195	772.856 ± 0.51	0.2653 ± 0.0064
303.15 K, m1 = 0.0227	773.025 ± 0.51	0.2655 ± 0.0064
303.15 K, m1 = 0.026	773.165 ± 0.51	0.2656 ± 0.0064
303.15 K, m1 = 0.0326	773.351 ± 0.51	0.2659 ± 0.0064
308.15 K, m1 = 0.0098	766.875 ± 0.52	0.2453 ± 0.0064
308.15 K, m1 = 0.0131	767.071 ± 0.52	0.2455 ± 0.0064
308.15 K, m1 = 0.0164	767.241 ± 0.52	0.2457 ± 0.0064
308.15 K, m1 = 0.0197	767.385 ± 0.52	0.2459 ± 0.0064
308.15 K, m1 = 0.023	767.558 ± 0.52	0.2461 ± 0.0064
308.15 K, m1 = 0.0263	767.695 ± 0.52	0.2463 ± 0.0064
308.15 K, m1 = 0.0329	767.859 ± 0.52	0.2466 ± 0.0064
310.15 K, m1 = 0.0098	764.642 ± 0.53	0.238 ± 0.0064
310.15 K, m1 = 0.0131	764.835 ± 0.53	0.2381 ± 0.0064
310.15 K, m1 = 0.0164	765.015 ± 0.53	0.2382 ± 0.0064
310.15 K, m1 = 0.0197	765.153 ± 0.53	0.2384 ± 0.0064
310.15 K, m1 = 0.023	765.331 ± 0.53	0.2385 ± 0.0064
310.15 K, m1 = 0.0263	765.465 ± 0.52	0.2386 ± 0.0064
310.15 K, m1 = 0.0329	765.629 ± 0.52	0.2388 ± 0.0064
313.15 K, m1 = 0.0099	761.351 ± 0.53	0.2272 ± 0.0063
313.15 K, m1 = 0.0132	761.545 ± 0.53	0.2274 ± 0.0063
313.15 K, m1 = 0.0165	761.711 ± 0.53	0.2276 ± 0.0063
313.15 K, m1 = 0.0198	761.849 ± 0.53	0.2278 ± 0.0063
313.15 K, m1 = 0.0231	762.019 ± 0.53	0.2279 ± 0.0063
313.15 K, m1 = 0.0264	762.135 ± 0.53	0.228 ± 0.0063
313.15 K, m1 = 0.033	762.341 ± 0.53	0.2282 ± 0.0063
